# Results as given in patent publication US20230365541A1, “INHIBITOR OF ENHANCER OF ZESTE HOMOLOGUE 2, AND USE THEREOF” (HAISCO PHARMACEUTICALS PTE. LTD., priority 2020, published 2023).
# Where two headings read alike, the source gives them in different places.
# Key:
# SU-DHL-6 cells = assay: SU-DHL-6 cell proliferation test; assay type: cell-based, human; details: incubated for 14 days
# Description: SU-DHL-6 cells are human B-cell lymphoma cell lines purchased from ATCC and cultured under the following conditions: RPMI-1640+10% FBS+1% double antibody in a 37° C., 5% CO2 incubator. The cells were plated in a 12-well plate, with a cell concentration of 1×10^5 cells/mL. After the cells were plated, the compounds at different concentrations were added and cultured in a 37° C., 5% CO2 incubator. The cells were counted every 3-4 days (Countstar automated cell counter), centrifuged to remove the supernatant, re-diluted to 1×10^5 cells/mL and plated, and then the compounds at different concentrations were further added. After the mixture was incubated for 14 days and the cells were counted, the test was terminated, and the IC50 values were calculated by using the Origen9.2 software.
# EZH2 = EZH2 (Homo sapiens (Human), UniProt Q15910); assay: Test method for EZH2 enzyme activity; assay type: biochemical; details: H3K27(21-44) and [3H]-SAM
# Description: The compounds were dissolved in DMSO, formulated into 10 mM solutions and serially diluted with DMSO to obtain 100-fold the final concentration. 200 nL of the solutions of the compounds was transferred to a 384-well plate (Perkin Elmer, Cat. No. 6007299) by using Echo550. EZH2 (BPS, Cat. No. 51004) was diluted with 1×assay buffer (50 mM Tris-HCl 9.0, 0.01% Tween-20, 1 mM DTT) to 2-fold the final concentration (EZH2: 3 nM). A mixed solution of H3K27(21-44) and [3H]-SAM (PerkinElmer, Lot. No. 2146246) (H3K27(21-44): 200 nM, [3H]-SAM: 100 nM) was formulated. The EZH2 diluted solution was taken and added to the 384-well plate at 10 μL/well (10 μL of 1×assay buffer was added in the control group). The plate was sealed and then incubated at room temperature for 15 minutes. 10 μL of the mixed solution of H3K27 (21-44) and [3H]-SAM was added to each well. The plate was sealed and then incubated at room temperature for 60 minutes. 50 μM of SAM (Sigma, Cat. No. A7007) was formulated at low temperature and added to the 384-well plate at 10 μL/well. The sample was taken at 25 μL/well, transferred to a flashplate and incubated at room temperature for at least 1 hour. The flashplate was washed 3 times with a plate washing liquid (dH2O+0.1% Tween-20) and read by using Microbeta. The inhibition rate was calculated in Excel according to: inhibition rate (%)=(maximum valuepositive control−detection signal value)/(maximum valuepositive control−minimum valuenegative control)*100, and IC50 values were fitted by using XL-Fit.
# [1] = Pharmacokinetic experiment in mice (intravenous 5 mg/kg or intragastric 30 mg/kg); assay type: in vivo
# Description: The administration was performed according to table 5.
# The concentrations of the compounds in EDTA-K2 anticoagulant plasma were determined by the LC-MS/MS method. The linear range of the standard curve of the compounds is 2-2000 ng/mL. After subjected to precipitating proteins with acetonitrile, the samples were analyzed by LC-MS/MS. The standard curve was subjected to a regression calculation using the weighted least square method (W=1/X^2), and quantified by calculating the ratio of test compound peak area to internal standard peak area.
# • (1) except to the blank sample, 400 μL of internal standard working solution (Verapamil internal standard concentration in precipitant acetonitrile is 10.0 ng/mL) was added to a 1.5 mL centrifuge tube containing 30 μL of standard curve samples and quality control samples; • 200 μL of internal standard working solution (Verapamil internal standard concentration in precipitant acetonitrile is 10.0 ng/mL) was added to a 1.5 mL centrifuge tube containing 15 μL of unknown samples; • and 400 μL of acetonitrile was added to the blank sample; • (2) the mixture was mixed evenly for about 1 min in a vortex mixer; • (3) centrifugation was carried out at 10000 rpm at 4C for 10 mi; • (4) 175 μL of the supernatant was transferred to a new 96-well polypropylene plate, and then the plate was sealed and placed in a 10° C. sample tray for injection.
# [2] = ICR mice, IV 5 mg/kg, listed as Compound 44, Isomer 2
# [3] = ICR mice, PO 30 mg/kg, listed as Compound 44, Isomer 2
# [4] = ICR mice, PO 30 mg/kg, listed as Compound 53, Isomer 1
# [5] = ICR mice, IV 5 mg/kg, listed as Compound 53, Isomer 2
# [6] = ICR mice, PO 30 mg/kg, listed as Compound 53, Isomer 2
# Sequence of EZH2 (Q15910 other isoform, or with tags, fused parts or gaps isoform Q15910-2): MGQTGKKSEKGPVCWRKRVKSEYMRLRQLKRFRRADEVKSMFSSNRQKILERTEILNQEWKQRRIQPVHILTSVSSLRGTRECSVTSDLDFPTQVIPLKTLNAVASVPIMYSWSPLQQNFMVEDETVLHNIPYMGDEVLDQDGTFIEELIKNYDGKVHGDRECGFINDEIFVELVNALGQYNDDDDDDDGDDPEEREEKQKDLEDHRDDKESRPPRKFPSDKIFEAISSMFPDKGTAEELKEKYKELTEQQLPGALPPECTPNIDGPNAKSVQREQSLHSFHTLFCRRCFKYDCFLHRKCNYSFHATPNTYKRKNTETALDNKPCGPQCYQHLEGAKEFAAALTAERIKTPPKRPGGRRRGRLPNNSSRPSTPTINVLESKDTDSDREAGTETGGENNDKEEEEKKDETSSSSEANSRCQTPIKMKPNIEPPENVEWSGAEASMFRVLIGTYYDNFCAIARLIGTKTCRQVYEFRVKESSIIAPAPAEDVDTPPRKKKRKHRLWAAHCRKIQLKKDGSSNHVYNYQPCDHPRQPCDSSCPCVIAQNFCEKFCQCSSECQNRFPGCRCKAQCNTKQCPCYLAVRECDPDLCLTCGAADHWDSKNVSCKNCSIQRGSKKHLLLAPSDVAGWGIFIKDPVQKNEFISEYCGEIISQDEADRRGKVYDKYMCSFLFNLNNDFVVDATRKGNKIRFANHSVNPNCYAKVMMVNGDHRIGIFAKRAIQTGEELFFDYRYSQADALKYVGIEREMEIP
# Sequence of EZH2 (O75530 2-441 partner): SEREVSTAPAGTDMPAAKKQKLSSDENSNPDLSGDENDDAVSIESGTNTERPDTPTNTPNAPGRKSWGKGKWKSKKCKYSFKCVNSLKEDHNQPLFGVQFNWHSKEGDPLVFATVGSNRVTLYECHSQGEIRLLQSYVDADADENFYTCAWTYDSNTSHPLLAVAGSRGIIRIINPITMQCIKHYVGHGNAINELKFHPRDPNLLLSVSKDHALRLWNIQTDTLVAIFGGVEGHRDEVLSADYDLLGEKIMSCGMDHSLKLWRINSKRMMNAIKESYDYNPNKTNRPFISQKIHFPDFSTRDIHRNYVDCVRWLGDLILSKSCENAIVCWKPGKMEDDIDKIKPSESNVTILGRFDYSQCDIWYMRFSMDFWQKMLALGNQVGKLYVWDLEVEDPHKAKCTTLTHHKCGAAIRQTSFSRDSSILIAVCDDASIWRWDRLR
# Sequence of EZH2 (Q15022 2-739 partner): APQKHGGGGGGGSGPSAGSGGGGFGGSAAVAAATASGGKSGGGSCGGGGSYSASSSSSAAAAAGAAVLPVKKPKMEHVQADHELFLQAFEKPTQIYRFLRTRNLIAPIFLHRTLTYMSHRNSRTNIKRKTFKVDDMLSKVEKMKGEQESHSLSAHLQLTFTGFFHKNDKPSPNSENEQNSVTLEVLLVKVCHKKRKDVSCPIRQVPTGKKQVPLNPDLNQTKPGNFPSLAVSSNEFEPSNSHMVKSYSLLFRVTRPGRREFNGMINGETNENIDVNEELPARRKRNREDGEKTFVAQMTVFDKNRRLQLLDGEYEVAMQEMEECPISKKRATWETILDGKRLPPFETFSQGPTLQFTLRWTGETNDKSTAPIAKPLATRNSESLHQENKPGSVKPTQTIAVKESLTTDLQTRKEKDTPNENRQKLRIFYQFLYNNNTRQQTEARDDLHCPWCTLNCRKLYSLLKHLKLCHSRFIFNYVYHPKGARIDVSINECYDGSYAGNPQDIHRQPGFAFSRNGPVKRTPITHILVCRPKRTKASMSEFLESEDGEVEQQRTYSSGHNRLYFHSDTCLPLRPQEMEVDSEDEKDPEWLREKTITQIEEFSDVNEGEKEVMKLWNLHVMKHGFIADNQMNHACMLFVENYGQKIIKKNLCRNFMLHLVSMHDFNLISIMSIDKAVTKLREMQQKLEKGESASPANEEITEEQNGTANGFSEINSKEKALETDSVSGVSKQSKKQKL
# Sequence of EZH2 (Q09028 2-425 partner): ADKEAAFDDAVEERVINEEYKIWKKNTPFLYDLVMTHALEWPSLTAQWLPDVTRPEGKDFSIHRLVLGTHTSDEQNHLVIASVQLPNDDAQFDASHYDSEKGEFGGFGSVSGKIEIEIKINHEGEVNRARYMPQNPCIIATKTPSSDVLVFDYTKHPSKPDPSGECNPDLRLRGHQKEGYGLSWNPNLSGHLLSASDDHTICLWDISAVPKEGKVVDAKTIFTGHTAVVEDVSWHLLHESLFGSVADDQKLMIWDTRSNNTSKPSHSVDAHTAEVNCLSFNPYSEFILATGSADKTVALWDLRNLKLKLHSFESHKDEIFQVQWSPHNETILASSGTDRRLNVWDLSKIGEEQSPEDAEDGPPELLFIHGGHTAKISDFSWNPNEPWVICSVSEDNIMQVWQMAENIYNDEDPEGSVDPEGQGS
# Sequence of EZH2 (Q6ZN18 whole entry partner): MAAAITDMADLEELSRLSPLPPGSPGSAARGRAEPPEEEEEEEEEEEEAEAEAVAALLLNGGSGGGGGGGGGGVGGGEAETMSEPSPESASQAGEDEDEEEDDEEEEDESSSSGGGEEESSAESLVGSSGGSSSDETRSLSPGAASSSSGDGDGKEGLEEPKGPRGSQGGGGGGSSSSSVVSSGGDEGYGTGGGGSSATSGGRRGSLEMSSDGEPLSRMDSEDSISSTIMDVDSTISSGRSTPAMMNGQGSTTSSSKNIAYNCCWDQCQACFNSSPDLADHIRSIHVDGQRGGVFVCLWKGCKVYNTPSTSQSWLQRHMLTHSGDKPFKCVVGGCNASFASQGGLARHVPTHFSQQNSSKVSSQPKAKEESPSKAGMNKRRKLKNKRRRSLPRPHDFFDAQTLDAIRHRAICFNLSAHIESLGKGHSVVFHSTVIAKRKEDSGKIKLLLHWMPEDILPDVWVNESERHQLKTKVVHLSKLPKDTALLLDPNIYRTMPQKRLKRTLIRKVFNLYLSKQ
smiles,measurement,setting,value
"CNC(=O)N1CC2CCC(C1)C2[C@]1(C)Oc2c(Cl)cc(C(=O)NCc3c(SC)cc(C)[nH]c3=O)c(C)c2O1 (mixture of isomers) [Compound 36, 8-(7-chloro-2,4-dimethyl-5-(((6-methyl-4-(methylthio)-2-oxo-1,2-dihydropyridin-3-yl)methyl)carbamoyl)benzo[d][1,3]dioxol-2-yl)-N-methyl-3-azabicyclo[3.2.1]octane-3-carboxamide]",IC50,"SU-DHL-6 cells; Homo sapiens, SU-DHL-6, 336 h",8.96 nM
same,IC50,EZH2,0.55 nM
"CSc1cc(C)[nH]c(=O)c1CNC(=O)c1cc(Cl)c2c(c1C)OC(C)(C1CCC(N3CC(N(C)C)C3)CC1)O2 (single isomer, unassigned) [Compound 1, isomer 1, 7-chloro-2-(4-(3-(dimethylamino)azetidin-1-yl)cyclohexyl)-2,4-dimethyl-N-((6-methyl-4-(methylthio)-2-oxo-1,2-dihydropyridin-3-yl)methyl)benzo[d][1,3]dioxole-5-carboxamide]",IC50,"SU-DHL-6 cells; Homo sapiens, SU-DHL-6, 336 h",13.1 nM
same,IC50,EZH2,0.67 nM
"CSc1cc(C)[nH]c(=O)c1CNC(=O)c1cc(Cl)c2c(c1C)OC(C)([C@H]1CC[C@@H](NC3CC(F)(F)C3)CC1)O2 (single isomer, unassigned) [Compound 4, isomer 1, 7-chloro-2-(4-((3,3-difluorocyclobutyl)amino)cyclohexyl)-2,4-dimethyl-N-((6-methyl-4-(methylthio)-2-oxo-1,2-dihydropyridin-3-yl)methyl)benzo[d][1,3]dioxole-5-carboxamide]",IC50,"SU-DHL-6 cells; Homo sapiens, SU-DHL-6, 336 h",10.2 nM
same,IC50,EZH2,0.46 nM
"CSc1cc(C)[nH]c(=O)c1CNC(=O)c1cc(Cl)c2c(c1C)OC(C)([C@H]1CC[C@@H](NC3CC(F)(F)C3)CC1)O2 (single isomer, unassigned) [Compound 4, isomer 2, 7-chloro-2-(4-((3,3-difluorocyclobutyl)amino)cyclohexyl)-2,4-dimethyl-N-((6-methyl-4-(methylthio)-2-oxo-1,2-dihydropyridin-3-yl)methyl)benzo[d][1,3]dioxole-5-carboxamide]",IC50,SU-DHL-6 cells,9.79 nM
same,IC50,EZH2,0.56 nM
"CSc1cc(C)[nH]c(=O)c1CNC(=O)c1cc(Cl)c2c(c1C)OC(C)([C@H]1CC[C@@H](N[C@H]3C[C@H](F)C3)CC1)O2 (single isomer, unassigned) [Compound 34, isomer 2, 7-chloro-2-(4-((trans-3-fluorocyclobutyl)amino)cyclohexyl)-2,4-dimethyl-N-((6-methyl-4-(methylthio)-2-oxo-1,2-dihydropyridin-3-yl)methyl)benzo[d][1,3]dioxole-5-carboxamide]",IC50,SU-DHL-6 cells,27.1 nM
same,IC50,EZH2,0.57 nM
"CSc1cc(C)[nH]c(=O)c1CNC(=O)c1cc(Cl)c2c(c1C)OC(C)([C@H]1CC[C@@H](c3ccccn3)CC1)O2 (single isomer, unassigned) [Compound 39, isomer 1, 7-chloro-2,4-dimethyl-N-((6-methyl-4-(methylthio)-2-oxo-1,2-dihydropyridin-3-yl)methyl)-2-(4-(pyridin-2-yl)cyclohexyl)benzo[d][1,3]dioxole-5-carboxamide]",IC50,SU-DHL-6 cells,28.2 nM
same,IC50,EZH2,0.42 nM
"CSc1cc(C)[nH]c(=O)c1CNC(=O)c1cc(Cl)c2c(c1C)OC(C)([C@H]1CC[C@@H](c3ccccn3)CC1)O2 (single isomer, unassigned) [Compound 39, isomer 2, 7-chloro-2,4-dimethyl-N-((6-methyl-4-(methylthio)-2-oxo-1,2-dihydropyridin-3-yl)methyl)-2-(4-(pyridin-2-yl)cyclohexyl)benzo[d][1,3]dioxole-5-carboxamide]",IC50,SU-DHL-6 cells,63.2 nM
same,IC50,EZH2,0.58 nM
"CSc1cc(C)[nH]c(=O)c1CNC(=O)c1cc(Cl)c2c(c1C)OC(C)([C@H]1CC[C@H](N[C@H]3C[C@@H](F)C3)CC1)O2 (single isomer, unassigned) [Compound 41, isomer 1, 7-chloro-2-(4-((cis-3-fluorocyclobutyl)amino)cyclohexyl)-2,4-dimethyl-N-((6-methyl-4-(methylthio)-2-oxo-1,2-dihydropyridin-3-yl)methyl)benzo[d][1,3]dioxole-5-carboxamide]",IC50,"SU-DHL-6 cells; Homo sapiens, SU-DHL-6, 336 h",35.3 nM
same,IC50,EZH2,0.52 nM
"[2H]C([2H])(NC(=O)c1cc(Cl)c2c(c1C)OC(C)([C@H]1CC[C@@H](NC3CC(F)(F)C3)CC1)O2)c1c(SC)cc(C)[nH]c1=O (single isomer, unassigned) [Compound 44, isomer 2, 7-chloro-2-(4-((3,3-difluorocyclobutyl)amino)cyclohexyl)-2,4-dimethyl-N-((6-methyl-4-(methylthio)-2-oxo-1,2-dihydropyridin-3-yl)methyl-d2)benzo[d][1,3]dioxole-5-carboxamide]",IC50,EZH2,0.51 nM
same,AUC,[1]; [2],713 ng·h/mL
same,C0,[1]; [2],2482 ng/mL
same,T1/2,[1]; [2],2.33 h
same,F %,"[1]; ICR mice, PO 30 mg/kg vs IV 5 mg/kg, listed as Compound 44, Isomer 2",27.4%
same,AUC,[1]; [3],917 ng·h/mL
same,Cmax,[1]; [3],463 ng/mL
same,T1/2,[1]; [3],1.81 h
same,Tmax,"[1]; male, ICR, mouse, plasma, po, 30 mg/kg, PO 30 mg/kg, read-out: Tmax",1 h
"[2H]C([2H])(NC(=O)c1cc(Cl)c2c(c1C)OC(C)(C1CCC(N[C@H]3C[C@H](F)C3)CC1)O2)c1c(SC)cc(C)[nH]c1=O (single isomer, unassigned) [Compound 53, isomer 1, 7-chloro-2-(4-((trans-3-fluorocyclobutyl)amino)cyclohexyl)-2,4-dimethyl-N-((6-methyl-4-(methylthio)-2-oxo-1,2-dihydropyridin-3-yl)methyl-d2)benzo[d][1,3]dioxole-5-carboxamide]",IC50,EZH2,0.33 nM
same,Cmax,[1]; [4],1025 ng/mL
same,T1/2,[1]; [4],1.10 h
same,Tmax,[1]; [4],0.500 h
same,half-life,"[1]; male, ICR, mouse, plasma, iv, 5 mg/kg, IV 5 mg/kg",1.21 h
same,AUC,"[1]; male, ICR, mouse, plasma, iv, 5 mg/kg, IV 5 mg/kg, read-out: AUC",703 ng·h/mL
same,C0,"[1]; male, ICR, mouse, plasma, iv, 5 mg/kg, IV 5 mg/kg, read-out: C0",2360 ng/mL
same,bioavailability,"[1]; male, ICR, mouse, plasma, po, 30 mg/kg, PO 30 mg/kg vs IV 5 mg/kg",47.9%
same,AUC,"[1]; male, ICR, mouse, plasma, po, 30 mg/kg, PO 30 mg/kg, read-out: AUC",2020 ng·h/mL
"[2H]C([2H])(NC(=O)c1cc(Cl)c2c(c1C)OC(C)(C1CCC(N[C@H]3C[C@H](F)C3)CC1)O2)c1c(SC)cc(C)[nH]c1=O (single isomer, unassigned) [Compound 53, isomer 2, 7-chloro-2-(4-((trans-3-fluorocyclobutyl)amino)cyclohexyl)-2,4-dimethyl-N-((6-methyl-4-(methylthio)-2-oxo-1,2-dihydropyridin-3-yl)methyl-d2)benzo[d][1,3]dioxole-5-carboxamide]",AUC,[1]; [5],954 ng·h/mL
same,C0,[1]; [5],2665 ng/mL
same,T1/2,[1]; [5],1.87 h
same,F %,"[1]; ICR mice, PO 30 mg/kg vs IV 5 mg/kg, listed as Compound 53, Isomer 2",38.4%
same,AUC,[1]; [6],2201 ng·h/mL
same,Cmax,[1]; [6],476 ng/mL
same,T1/2,[1]; [6],4.51 h
same,Tmax,[1]; [6],4.00 h
